# Publication PMC6018746, “Activation of the p53-MDM4 regulatory axis defines the anti-tumour response to PRMT5 inhibition through its role in regulating cellular splicing” (Scientific Reports, 2018)
# Read-outs that look alike come from different tables or passages of the source.
# Tested on: panel of hematologic and solid cancer lines
# Test: 6-day in vitro growth/death assay
# Type: cell-based, human
# Conditions: read-out: gIC50
# Experimental: To further develop these molecules and to guide clinical strategy, it was necessary to understand sensitivity in preclinical models by assessing the anti-tumour activity of the PRMT5 inhibitors in various cancers.
# Cell lines were obtained from ATCC or DSMZ and were grown in recommended medium, which was most frequently RPMI-1640 containing 10% FBS. Cell line proliferation assays, Western blotting, qRT-PCR, and cell cycle analyses were performed as described previously[27],[28]. Antibody and gene expression reagents are as described in Supplementary Table 16. All studies were conducted in accordance with the GSK Policy on the Care, Welfare and Treatment of Laboratory Animals and were reviewed by the Institutional Animal Care and Use Committee either at GSK or by the ethical review process at the institution where the work was performed. Detailed descriptions of all methods can be found in the Supplemental Materials.
compound,measurement,setting,value
O=C(NC[C@H](O)CN1CCc2ccccc2C1)c1ccnc(NC2CCC2)c1 [GSK3203591],IC50,"Homo sapiens, NCI-H747, NCIH747",1500 nM
same,IC50,"Homo sapiens, NCI-H1048, NCI-H1048",252 nM
same,IC50,"Homo sapiens, NCI-H1299, NCI-H1299",419 nM
same,IC50,"Homo sapiens, NCI-H1437, NCI-H1437",467 nM
same,IC50,"Homo sapiens, NCI-H1563, NCI-H1563",> 29300 nM
same,IC50,"Homo sapiens, NCI-H1581, NCI-H1581",12800 nM
same,IC50,"Homo sapiens, NCI-H1648, NCI-H1648",20700 nM
same,IC50,"Homo sapiens, NCI-H1650, NCI-H1650",8770 nM
same,IC50,"Homo sapiens, NCI-H1651, NCI-H1651",15300 nM
same,IC50,"Homo sapiens, NCI-H1915, NCI-H1915",1130 nM
same,IC50,"Homo sapiens, NCI-H1975, NCI-H1975",289 nM
same,IC50,"Homo sapiens, NCI-H2087, NCI-H2087",510 nM
same,IC50,"Homo sapiens, NCI-H2170, NCI-H2170",6390 nM
same,IC50,"Homo sapiens, NKM-1",7.6 nM
same,IC50,"Homo sapiens, NOMO-1, NOMO-1",7320 nM
same,IC50,"Homo sapiens, NU-DHL-1, NU-DHL-1",101 nM
same,IC50,"Homo sapiens, NU-DUL-1, NU-DUL-1",548 nM
same,IC50,"Homo sapiens, OCI-AML-3, OCI-AML3",373 nM
same,IC50,"Homo sapiens, OCI-AML-5, OCI-AML5",297 nM
same,IC50,"Homo sapiens, OCI-LY19, OCI-LY-19",101 nM
same,IC50,"Homo sapiens, OCI-Ly1, OCILY-1",> 29300 nM
same,IC50,"Homo sapiens, OCI-Ly3, OCI-LY3",1510 nM
same,IC50,"Homo sapiens, OCI-Ly10, OCILY-10",4470 nM
same,IC50,"Homo sapiens, OCI-Ly18, OCI-LY-18",30.8 nM
same,IC50,"Homo sapiens, OCI-M1, OCI-M1",130 nM
same,IC50,"Homo sapiens, OPM-2, OPM-2",40.2 nM
same,IC50,"Homo sapiens, PANC-1, PANC-1",939 nM
same,IC50,"Homo sapiens, PANC-03-27, PANC-03.27",2480 nM
same,IC50,"Homo sapiens, PANC-08-13, PANC-08.13",136 nM
same,IC50,"Homo sapiens, PC-3, PC-3",1890 nM
same,IC50,"Homo sapiens, PC-9, PC9",95 nM
same,IC50,"Homo sapiens, PER-403, PER-403",29.2 nM
same,IC50,"Homo sapiens, PER-624",526 nM
same,IC50,"Homo sapiens, PER-704",374 nM
same,IC50,"Homo sapiens, PL-21, PL-21",329 nM
same,IC50,"Homo sapiens, PSN1, PSN-1",504 nM
same,IC50,"Homo sapiens, PaTu 8988t, PA-TU-8988T",> 29300 nM
same,IC50,"Homo sapiens, Panc 02.03, PANC-02.03",1370 nM
same,IC50,"Homo sapiens, Panc 04.03, PANC-04.03",622 nM
same,IC50,"Homo sapiens, Panc1005, PANC-10.05",2080 nM
same,IC50,"Homo sapiens, Pfeiffer",352 nM
same,IC50,"Homo sapiens, RCK8, RCK8",2110 nM
same,IC50,"Homo sapiens, RIVA",68.4 nM
same,IC50,"Homo sapiens, RKO",2210 nM
same,IC50,"Homo sapiens, RL",1430 nM
same,IC50,"Homo sapiens, RPMI-6666, RPMI-6666",2710 nM
same,IC50,"Homo sapiens, RPMI-8226, RPMI-8226",135 nM
same,IC50,"Homo sapiens, RPMI-8226-DOX",204 nM
same,IC50,"Homo sapiens, RPMI-8226-LR5",303 nM
same,IC50,"Homo sapiens, RPMI-8226-MR20",384 nM
same,IC50,"Homo sapiens, RT-112, RT-112",1110 nM
same,IC50,"Homo sapiens, RVH-421, RVH-421",> 29300 nM
same,IC50,"Homo sapiens, Rec1, REC-1",1990 nM
same,IC50,"Homo sapiens, SC-1, SC-1",117 nM
same,IC50,"Homo sapiens, SCaBER",255 nM
same,IC50,"Homo sapiens, SF-126, SF-126",386 nM
same,IC50,"Homo sapiens, SF-295, SF295",9840 nM
same,IC50,"Homo sapiens, SF-539, SF539",75 nM
same,IC50,"Homo sapiens, SH-4, SH-4",2560 nM
same,IC50,"Homo sapiens, SHI-1",358 nM
same,IC50,"Homo sapiens, SIG-M5, SIG-M5",316 nM
same,IC50,"Homo sapiens, SK-BR-3, SK-BR-3",132 nM
same,IC50,"Homo sapiens, SK-CO-1, SK-CO-1",473 nM
same,IC50,"Homo sapiens, SK-LU-1, SK-LU-1",881 nM
same,IC50,"Homo sapiens, SK-MEL-5, SK-MEL-5",111 nM
same,IC50,"Homo sapiens, SK-MES-1, SK-MES-1",18500 nM
same,IC50,"Homo sapiens, SK-MM-2, SK-MM-2",1260 nM
same,IC50,"Homo sapiens, SK-NEP-1, SK-NEP-1",2240 nM
same,IC50,"Homo sapiens, SK-UT-1, SK-UT-1",393 nM
same,IC50,"Homo sapiens, SKM-1, SKM-1",110 nM
same,IC50,"Homo sapiens, SKNO-1, SKNO-1",563 nM
same,IC50,"Homo sapiens, SNU-16, SNU16",175 nM
same,IC50,"Homo sapiens, SNU-C1, SNUC1",1520 nM
same,IC50,"Homo sapiens, SR-786, SR-786",32.8 nM
same,IC50,"Homo sapiens, SU-DHL10, SU-DHL-10",495 nM
same,IC50,"Homo sapiens, SU-DHL-2, SU-DHL-2",86 nM
same,IC50,"Homo sapiens, SU-DHL-4, SU-DHL-4",571 nM
same,IC50,"Homo sapiens, SU-DHL-5, SU-DHL-5",132 nM
same,IC50,"Homo sapiens, SU-DHL-6, SU-DHL-6",12.9 nM
same,IC50,"Homo sapiens, SU-DHL-8, SU-DHL-8",1220 nM
same,IC50,"Homo sapiens, SU-DHL-16, SU-DHL-16",124 nM
same,IC50,"Homo sapiens, SW48, SW48",9340 nM
same,IC50,"Homo sapiens, SW480, SW480",2260 nM
same,IC50,"Homo sapiens, SW780, SW-780",450 nM
same,IC50,"Homo sapiens, SW837, SW837",9150 nM
same,IC50,"Homo sapiens, SW900, SW900",7970 nM
same,IC50,"Homo sapiens, SW982, SW982",369 nM
same,IC50,"Homo sapiens, SW1271, SW1271",3180 nM
same,IC50,"Homo sapiens, SW1417, SW-1417",19600 nM
same,IC50,"Homo sapiens, SW1573, SW1573",11400 nM
same,IC50,"Homo sapiens, SW1710, SW-1710",10000 nM
same,IC50,"Homo sapiens, SW1990, SW-1990",125 nM
same,IC50,"Homo sapiens, SW-403, SW403",9760 nM
same,IC50,"Homo sapiens, SW-620, SW620",1350 nM
same,IC50,"Homo sapiens, T47D, T-47D",225 nM
same,IC50,"Homo sapiens, T84, T84",1680 nM
same,IC50,"Homo sapiens, T98MG",1300 nM
same,IC50,"Homo sapiens, T-24, T24",650 nM
same,IC50,"Homo sapiens, TCC-SUP, TCCSUP",11200 nM
same,IC50,"Homo sapiens, TF-1, TF-1",138 nM
same,IC50,"Homo sapiens, THP-1, THP-1",951 nM
same,IC50,"Homo sapiens, Toledo",443 nM
same,IC50,"Homo sapiens, U138-MG, U138MG",> 29300 nM
same,IC50,"Homo sapiens, U266B1",652 nM
same,IC50,"Homo sapiens, U2932, U2932",336 nM
same,IC50,"Homo sapiens, U-87 MG",128 nM
same,IC50,"Homo sapiens, U-251, U251MG",3490 nM
same,IC50,"Homo sapiens, U-937, U937",48.6 nM
same,IC50,"Homo sapiens, U-2940, U2940",2350 nM
same,IC50,"Homo sapiens, UMC-11, UMC11",10700 nM
same,IC50,"Homo sapiens, UMUC3, UM-UC-3",19200 nM
same,IC50,"Homo sapiens, VCaP",> 29300 nM
same,IC50,"Homo sapiens, VM-CUB-1, VM-CUB1",1580 nM
same,IC50,"Homo sapiens, WM 266-4, WM-266-4",17200 nM
same,IC50,"Homo sapiens, WSU-FSCCL",268 nM
same,IC50,"Homo sapiens, WSU-NHL",75.7 nM
same,IC50,"Homo sapiens, WSUDLCL2, WSU-DLCL2",652 nM
same,IC50,"Homo sapiens, WiDr",438 nM
same,IC50,"Homo sapiens, YH13",> 29300 nM
same,IC50,"Homo sapiens, YKG-1, YKG1",254 nM
same,IC50,"Homo sapiens, Z-138, Z-138",13.6 nM
same,IC50,"Homo sapiens, ZR-75-1, ZR-75-1",2620 nM
same,IC50,"Homo sapiens, majority (147/276) of cell lines",< 1000 nM
same,IC50,J82,20900 nM
same,IC50,JM1,76 nM
same,IC50,JVM-2,172 nM
same,IC50,JeKo-1,6190 nM
same,IC50,LN-229,1150 nM
same,IC50,MAVER-1,133 nM
same,IC50,MCF-7,215 nM
same,IC50,MDA-MB-231,2930 nM
same,IC50,MINO,536 nM
same,IC50,NCI-H526-R,219 nM
same,IC50,NCI-H526,138 nM
same,IC50,PER-403,29 nM
same,IC50,PER-624,526 nM
same,IC50,PER-704,375 nM
same,IC50,Pfeiffer,352 nM
same,IC50,RCK8,2110 nM
same,IC50,REC-1,1990 nM
same,IC50,RIVA,68 nM
same,IC50,RL,1430 nM
same,IC50,SF295,9840 nM
same,IC50,SK-BR-3,131 nM
same,IC50,SU-DHL-4,571 nM
same,IC50,SU-DHL-5,132 nM
same,IC50,SU-DHL-6,13 nM
same,IC50,SU-DHL-8,1220 nM
same,IC50,SU-DHL-10,495 nM
same,IC50,SU-DHL-16,124 nM
same,IC50,SW-780,451 nM
same,IC50,T24,650 nM
same,IC50,U251MG,3490 nM
same,IC50,U937,49 nM
same,IC50,U2932,336 nM
same,IC50,U2940,2350 nM
same,IC50,U-87MG,127 nM
same,IC50,UM-UC-3,19200 nM
same,IC50,WSU-DLCL2,651 nM
same,IC50,Z-138,14 nM
same,IC50,ZR-75-1,2620 nM
